Measured values from patent US10442793B2, “Oxa spiro derivative, preparation method therefor, and applications thereof in medicines” (Jiangsu Hengrui Medicine Co., Ltd., priority 2015, dated 2019).
Like-named read-outs stand apart in the source and are kept apart here.

Molecular target: T1, μ-opioid receptors (MOR) (Homo sapiens, UniProt P35372)
T1 construct: host or cells: HEK293
Assay: MOR activity test: HEK293/MOR/CRE luciferase reporter, agonizing MOR and affecting downstream cAMP levels
Format: cell-based
Settings: for Emax: HEK293, maximum effect of TRV-130 is 100%, read-out: Emax on agonizing MOR receptor and affecting cAMP levels
Excerpt: The compounds of the present invention can activate μ-opioid receptors (MOR). Activated MOR can regulate intracellular cAMP levels, and cAMP enters the nucleus and binds to the CRE region of the reporter gene luciferase, thereby initiating the expression of the reporter gene. Luciferase can react with its substrate to emit fluorescence, and the measured fluorescence signals reflect the agonistic activity of the compounds.
The activity of the test example compounds on agonizing MOR and affecting downstream cAMP levels was tested by the following method.
MOR/pcDNA3.1 (+) and CRE/pGL4.29 were transferred into HEK293 cells. G418 and hygromycin were added into the culture medium, and HEK293/MOR/CRE monoclonal cell lines were screened in a 96-well cell culture plate.
HEK293/MOR/CRE monoclonal cells were cultured in a DMEM/high glucose medium (10% FBS, 1 mg/ml G418, 200 μg/ml hygromycin, mixed uniformly), and passaged every 3 days. On the day of the experiment, a cell suspension was prepared with a fresh cell medium, added to a 96 well plate (BD, #356692) with 20,000 cells/well, and incubated in 5% CO2 at 37° C. On the second day, the compound was dissolved in pure DMSO at a concentration of 20 mM, then formulated with DMSO to a first concentration of 4 mM and diluted in 10 fold concentration gradient to 6 concentrations. Then, 90 μl of DMSO was added to blank and control wells. Then, formulated compound was prepared by adding 2.5 μl of the compound solutions formulated in DMSO at a gradient concentration to 97.5 μl of a fresh cell culture medium containing 5 μM foscolin. Then, 10 μl of the formulated compound was added to the cell culture plate to make the final concentration of the compound 10000, 1000, 100, 10, 1, 0.1, or 0.01 nM, and the plate was incubated at 37° C., in 5% CO2 for 5 hours. In a 96-well cell culture plate, 100 μl of luciferase assay solution (Promega, # E6110) was added to each well. The plate was placed in the dark at room temperature for 10-15 minutes, blowed and aspirated 10 times, and 100 μl were pipetted to a 96 well white plate. The chemiluminescence signal values were read in a microplate reader (PE, Victor3), and the read data was processed using software.
The activity of the compounds of the present invention on agonizing MOR and affecting downstream cAMP levels was determined by the above test, and the EC50 values are shown in Table 1.1.

T1 sequence (P35372 whole entry): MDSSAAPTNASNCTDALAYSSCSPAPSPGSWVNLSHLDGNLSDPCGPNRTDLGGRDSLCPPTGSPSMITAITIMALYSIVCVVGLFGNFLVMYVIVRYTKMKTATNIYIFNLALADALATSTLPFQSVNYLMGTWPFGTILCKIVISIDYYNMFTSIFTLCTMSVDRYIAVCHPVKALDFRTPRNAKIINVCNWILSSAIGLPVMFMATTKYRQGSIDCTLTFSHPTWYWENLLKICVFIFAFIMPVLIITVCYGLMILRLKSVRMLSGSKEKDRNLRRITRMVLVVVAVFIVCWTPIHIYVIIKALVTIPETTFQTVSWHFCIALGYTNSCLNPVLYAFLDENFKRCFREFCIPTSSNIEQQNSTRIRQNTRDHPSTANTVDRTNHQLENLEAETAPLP

## CO[C@@H]1Cc2ccccc2[C@H]1NCC[C@@]1(c2ccccn2)CCOC2(CCCC2)C1 [Example 4, (1R,2R)-2-methoxy-N-(2-((R)-9-(pyridin-2-yl)-6-oxaspiro[4.5]decan-9-yl)ethyl)-2,3-dihydro-1H-inden-1-amine]
  EC50: 1 nM
  Emax: 129%

## c1ccc([C@]2(CCN[C@@H]3CCOc4ccccc43)CCOC3(CCCC3)C2)nc1 [Example 7, (R)-N-(2-((R)-9-(pyridin-2-yl)-6-oxaspiro[4.5]decan-9-yl)ethyl)chroman-4-amine]
  EC50: > 10000 nM
  Emax: 0%

## Fc1ccc2c(c1)C(NCC[C@@]1(c3ccccn3)CCOC3(CCCC3)C1)CCO2 (stereo partly drawn) [Example 8, 6-fluoro-N-(2-((R)-9-(pyridin-2-yl)-6-oxaspiro[4.5]decan-9-yl)ethyl)chroman-4-amine]
  EC50: 3 nM
  Emax: 114%

## c1ccc([C@]2(CCN[C@@H]3CCCc4ccccc43)CCOC3(CCCC3)C2)nc1 [Example 9, (R)-N-(2-((R)-9-(pyridin-2-yl)-6-oxaspiro[4.5]decan-9-yl)ethyl)-1,2,3,4-tetrahydronaphthalen-1-amine]
  EC50: > 10000 nM
  Emax: 48%

## c1ccc([C@]2(CCN[C@H]3CCCc4ccccc43)CCOC3(CCCC3)C2)nc1 [Example 10, (S)-N-(2-((R)-9-(pyridin-2-yl)-6-oxaspiro[4.5]decan-9-yl)ethyl)-1,2,3,4-tetrahydronaphthalen-1-amine]
  EC50: 4 nM
  Emax: 113%

## c1ccc([C@]2(CCN[C@@H]3CCc4ccccc43)CCOC3(CCCC3)C2)nc1 [Example 15, (R)-N-(2-((R)-9-(pyridin-2-yl)-6-oxaspiro[4.5]decan-9-yl)ethyl)-2,3-dihydro-1H-inden-1-amine]
  EC50: > 10000 nM
  Emax: 0%

## CO[C@H]1Cc2ccccc2[C@@H]1NCC[C@@]1(c2ccccn2)CCOC2(CCCC2)C1 [Example 17, (1S,2S)-2-methoxy-N-(2-((R)-9-(pyridin-2-yl)-6-oxaspiro[4.5]decan-9-yl)ethyl)-2,3-dihydro-1H-inden-1-amine]
  EC50: > 10000 nM
  Emax: 0%

## O[C@H]1Cc2ccccc2[C@@H]1NCCC1(c2ccccn2)CCOC2(CCCC2)C1 (stereo partly drawn) [Example 18, (1S,2S)-1-((2-(9-(pyridin-2-yl)-6-oxaspiro[4.5]decan-9-yl)ethyl)amino)-2,3-dihydro-1H-inden-2-ol]
  EC50: > 10000 nM
  Emax: 4%

## COC[C@@H]1CC[C@H](NCC[C@@]2(c3ccccn3)CCOC3(CCCC3)C2)c2ccccc21 [Example 23, (1S,4R)-4-(methoxymethyl)-N-(2-((R)-9-(pyridin-2-yl)-6-oxaspiro[4.5]decan-9-yl)ethyl)-1,2,3,4-tetrahydronaphthalen-1-amine]
  EC50: 5 nM
  Emax: 120%

## CO[C@@H]1CC[C@H](NCC[C@@]2(c3ccccn3)CCOC3(CCCC3)C2)c2ccccc21 [Example 30, (1S,4R)-4-methoxy-N-(2-((R)-9-(pyridin-2-yl)-6-oxaspiro[4.5]decan-9-yl)ethyl)-1,2,3,4-tetrahydronaphthalen-1-amine]
  EC50: 2 nM
  Emax: 126%

## N#CCC1CC[C@H](NCC[C@@]2(c3ccccn3)CCOC3(CCCC3)C2)c2ccccc21 (stereo partly drawn) [Example 32, 2-((4S)-4-((2-((R)-9-(pyridin-2-yl)-6-oxaspiro[4.5]decan-9-yl)ethyl)amino)-1,2,3,4-tetra hydronaphthalen-1-yl)acetonitrile]
HEK293/MOR/CRE cells, 5 h incubation, forskolin, read-out: EC50 on agonizing MOR receptor and affecting cAMP levels
  EC50: 0.8 nM
  Emax: 133%
